Reference: the supplement of paper PMC10627819

What was measured:
B. subtilis 168 = assay: fitness (endpoint OD595 vs no drug) (fraction); higher = more growth
Procedure, shortened: (§1)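 Fitness was measured as bacterial growth in 384-well plates inoculated at OD595 0.01 (30 µl, or 55 µl for S. pneumoniae). Media were TSB, LB Lennox or CY, at 37 °C. OD595 was read every 30 min for 14 h and background-subtracted against the first reading. Fitness is OD595 at the transition into stationary phase divided by the robust mean of no-drug control wells, capped at 1.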

S. pneumoniae D39V = assay: as above
Procedure, shortened: as §1
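Also: OD595 on entry to stationary phase over no-drug wells; at most 1.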

N[C@@H]1CONC1=O [Cycloserine D] + CO[C@@H]1[C@@H](OC(N)=O)[C@@H](O)[C@H](Oc2ccc3c(O)c(NC(=O)c4ccc(O)c(CC=C(C)C)c4)c(=O)oc3c2C)OC1(C)C [Novobiocin]
fitness, B. subtilis 168
Conditions | first compound 0.125 µg/mL | first compound 0.25 µg/mL | first compound 0.5 µg/mL
partner 0.0125 µg/mL | 0.987 | 0.943 | 0.922
partner 0.025 µg/mL | 0.957 | 0.957 | 0.913
partner 0.05 µg/mL | ≥ 1 | 0.994 | 0.992

fitness, B. subtilis 168, one replicate
Conditions | partner 0.1 µg/mL | partner 0.125 µg/mL | partner 0.2 µg/mL | partner 0.25 µg/mL | partner 0.5 µg/mL
first compound 0.125 µg/mL | 0.906 | 0.871 | 0.921 | 0.908 | 0.605
first compound 0.25 µg/mL | 0.995 | 0.962 | ≥ 1 | 0.852 | 0.632
first compound 0.5 µg/mL | ≥ 1 | 0.967 | 0.952 | 0.958 | 0.544

N[C@@H]1CONC1=O [Cycloserine D] + CN(C)C(=O)C(CCN1CCC(O)(c2ccc(Cl)cc2)CC1)(c1ccccc1)c1ccccc1 [Loperamide]
fitness, B. subtilis 168
Conditions | first compound 0.125 µg/mL | first compound 0.25 µg/mL | first compound 0.5 µg/mL
partner 50 µg/mL | 0.0169 | 0.0651 | 0.0491
partner 100 µg/mL | 0.0259 | 0.0243 | 0.0094

N[C@@H]1CONC1=O [Cycloserine D] + C[C@H]1COc2c(N3CCN(C)CC3)c(F)cc3c(=O)c(C(=O)O)cn1c23 [Levofloxacin]
fitness, B. subtilis 168, one replicate
Conditions | first compound 0.125 µg/mL | first compound 0.25 µg/mL | first compound 0.5 µg/mL
partner 0.001 µg/mL | 0.979 | 0.973 | 0.987
partner 0.0078 µg/mL | 0.898 | 0.863 | 0.968

fitness, B. subtilis 168
Conditions | partner 0.002 µg/mL | partner 0.0039 µg/mL | partner 0.0312 µg/mL | partner 0.0625 µg/mL | partner 0.125 µg/mL
first compound 0.125 µg/mL | 0.93 | 0.92 | 0.0375 | 0.0466 | 0.0546
first compound 0.25 µg/mL | 0.921 | 0.902 | 0.0356 | 0.0536 | 0.0482
first compound 0.5 µg/mL | 0.965 | 0.995 | 0.0328 | 0.0466 | 0.0559

CC[C@H]1OC(=O)[C@H](C)[C@@H](O[C@H]2C[C@@](C)(OC)[C@@H](O)[C@H](C)O2)[C@H](C)[C@@H](O[C@@H]2O[C@H](C)C[C@H](N(C)C)[C@H]2O)[C@](C)(OC)C[C@@H](C)C(=O)[C@H](C)[C@@H](O)[C@]1(C)O [Clarithromycin] + CN(C)[C@@H]1C(O)=C(C(N)=O)C(=O)[C@@]2(O)C(O)=C3C(=O)c4c(O)ccc(Cl)c4[C@@](C)(O)[C@H]3C[C@@H]12 [Chlortetracycline]
fitness, S. pneumoniae D39V, one replicate
Conditions | first compound 0.007812 µg/mL | first compound 0.01562 µg/mL | first compound 0.03125 µg/mL
partner 0.012 µg/mL | 0.693 | 0.688 | 0.542
partner 0.024 µg/mL | 0.844 | 0.654 | 0.455
partner 0.048 µg/mL | 0.693 | 0.519 | 0.244

fitness, S. pneumoniae D39V
Conditions | first compound 0.0625 µg/mL | first compound 0.07 µg/mL | first compound 0.125 µg/mL | first compound 0.14 µg/mL | first compound 0.25 µg/mL | first compound 0.28 µg/mL
partner 0.012 µg/mL | – | 0.0902 | – | 0.14 | – | 0.093
partner 0.024 µg/mL | – | 0.121 | – | 0.122 | – | 0.0945
partner 0.048 µg/mL | – | 0.123 | – | 0.132 | – | 0.118
partner 0.375 µg/mL | 0.0643 | – | 0.0595 | – | 0.0683 | –
partner 0.75 µg/mL | 0.0438 | – | 0.0485 | – | 0.0679 | –
partner 1.5 µg/mL | 0.0386 | – | 0.0516 | – | 0.0374 | –

C[C@@H](O)[C@H]1C(=O)N2C(C(=O)O)=C(SCCNC=N)C[C@H]12 [Imipenem] + CO[C@@]12[C@H](COC(N)=O)C3=C(C(=O)C(C)=C(N)C3=O)N1C[C@@H]1N[C@@H]12 [Mitomycin C]
S. pneumoniae D39V
Conditions | fitness
first compound 0.005 µg/mL, partner 0.001075 µg/mL | 0.906
first compound 0.005 µg/mL, partner 0.00215 µg/mL | 0.923
first compound 0.005 µg/mL, partner 0.0043 µg/mL | 0.815
first compound 0.0065 µg/mL, partner 0.002 µg/mL | 0.797
first compound 0.0065 µg/mL, partner 0.004 µg/mL | 0.657
first compound 0.01 µg/mL, partner 0.001075 µg/mL | 0.921
first compound 0.01 µg/mL, partner 0.00215 µg/mL | 0.876
first compound 0.01 µg/mL, partner 0.0043 µg/mL | 0.804
first compound 0.013 µg/mL, partner 0.002 µg/mL | 0.583
first compound 0.013 µg/mL, partner 0.004 µg/mL | 0.731
first compound 0.013 µg/mL, partner 0.008 µg/mL | 0.56
first compound 0.02 µg/mL, partner 0.001075 µg/mL | 0.937
first compound 0.02 µg/mL, partner 0.00215 µg/mL | 0.919
first compound 0.02 µg/mL, partner 0.0043 µg/mL | 0.78
first compound 0.026 µg/mL, partner 0.002 µg/mL | 0.737
first compound 0.026 µg/mL, partner 0.004 µg/mL | 0.668
first compound 0.026 µg/mL, partner 0.008 µg/mL | 0.417

N[C@@H]1CONC1=O [Cycloserine D] + C[C@H]1c2cccc(O)c2C(=O)C2=C(O)[C@]3(O)C(=O)C(C(N)=O)=C(O)[C@@H](N(C)C)[C@@H]3[C@@H](O)[C@@H]21 [Doxycycline]
fitness, B. subtilis 168
Conditions | first compound 0.125 µg/mL | first compound 0.25 µg/mL | first compound 0.5 µg/mL
partner 0.02 µg/mL | 0.909 | 0.903 | 0.898
partner 0.04 µg/mL | 0.738 | 0.732 | 0.709

CC[C@H]1OC(=O)[C@H](C)[C@@H](O[C@H]2C[C@@](C)(OC)[C@@H](O)[C@H](C)O2)[C@H](C)[C@@H](O[C@@H]2O[C@H](C)C[C@H](N(C)C)[C@H]2O)[C@](C)(OC)C[C@@H](C)C(=O)[C@H](C)[C@@H](O)[C@]1(C)O [Clarithromycin] + CO/N=C(\C(=O)N[C@@H]1C(=O)N2C(C(=O)[O-])=C(C[N+]3(C)CCCC3)CS[C@H]12)c1csc(N)n1 [Cefepime]
fitness, S. pneumoniae D39V, one replicate
Conditions | first compound 0.007812 µg/mL | first compound 0.01562 µg/mL | first compound 0.03125 µg/mL
partner 0.0078 µg/mL | 0.887 | 0.866 | 0.673
partner 0.0155 µg/mL | 0.884 | 0.834 | 0.635
partner 0.031 µg/mL | 0.456 | 0.491 | 0.456

fitness, S. pneumoniae D39V
Conditions | first compound 0.0625 µg/mL | first compound 0.07 µg/mL | first compound 0.125 µg/mL | first compound 0.14 µg/mL | first compound 0.25 µg/mL | first compound 0.28 µg/mL
partner 0.007 µg/mL | 0.67 | – | 0.43 | – | 0.165 | –
partner 0.0078 µg/mL | – | 0.187 | – | 0.0821 | – | 0.103
partner 0.014 µg/mL | 0.675 | – | 0.458 | – | 0.181 | –
partner 0.0155 µg/mL | – | 0.168 | – | 0.105 | – | 0.108
partner 0.028 µg/mL | 0.611 | – | 0.358 | – | 0.136 | –
partner 0.031 µg/mL | – | 0.0769 | – | 0.102 | – | 0.091

CC[C@H]1OC(=O)[C@H](C)[C@@H](O[C@H]2C[C@@](C)(OC)[C@@H](O)[C@H](C)O2)[C@H](C)[C@@H](O[C@@H]2O[C@H](C)C[C@H](N(C)C)[C@H]2O)[C@](C)(OC)C[C@@H](C)C(=O)[C@H](C)[C@@H](O)[C@]1(C)O [Clarithromycin] + CO[C@@]12[C@H](COC(N)=O)C3=C(C(=O)C(C)=C(N)C3=O)N1C[C@@H]1N[C@@H]12 [Mitomycin C]
fitness, S. pneumoniae D39V, one replicate
Conditions | first compound 0.007812 µg/mL | first compound 0.01562 µg/mL | first compound 0.03125 µg/mL
partner 0.002 µg/mL | 0.798 | 0.763 | 0.596
partner 0.004 µg/mL | 0.727 | 0.692 | 0.539
partner 0.008 µg/mL | 0.546 | 0.558 | 0.379

fitness, S. pneumoniae D39V
Conditions | first compound 0.0625 µg/mL | first compound 0.07 µg/mL | first compound 0.125 µg/mL | first compound 0.14 µg/mL | first compound 0.25 µg/mL | first compound 0.28 µg/mL
partner 0.001075 µg/mL | 0.654 | – | 0.345 | – | 0.084 | –
partner 0.002 µg/mL | – | 0.139 | – | 0.0901 | – | 0.0614
partner 0.00215 µg/mL | 0.642 | – | 0.285 | – | 0.108 | –
partner 0.004 µg/mL | – | 0.142 | – | 0.0707 | – | 0.0988
partner 0.0043 µg/mL | 0.526 | – | 0.245 | – | 0.0525 | –
partner 0.008 µg/mL | – | 0.0708 | – | 0.039 | – | 0.0676

CCC[C@@H]1C[C@@H](C(=O)N[C@@H]([C@H]2O[C@H](SC)[C@H](O)[C@@H](O)[C@H]2O)[C@H](C)Cl)N(C)C1 [Clindamycin] + CC[C@H]1OC(=O)[C@H](C)[C@@H](O[C@H]2C[C@@](C)(OC)[C@@H](O)[C@H](C)O2)[C@H](C)[C@@H](O[C@@H]2O[C@H](C)C[C@H](N(C)C)[C@H]2O)[C@](C)(OC)C[C@@H](C)C(=O)[C@H](C)[C@@H](O)[C@]1(C)O [Clarithromycin]
fitness, S. pneumoniae D39V
Conditions | first compound 0.0125 µg/mL | first compound 0.015 µg/mL | first compound 0.025 µg/mL | first compound 0.03 µg/mL | first compound 0.05 µg/mL | first compound 0.06 µg/mL
partner 0.0625 µg/mL | 0.563 | – | 0.422 | – | 0.164 | –
partner 0.07 µg/mL | – | 0.136 | – | 0.11 | – | 0.0799
partner 0.125 µg/mL | 0.409 | – | 0.338 | – | 0.109 | –
partner 0.14 µg/mL | – | 0.087 | – | 0.081 | – | 0.115
partner 0.25 µg/mL | 0.181 | – | 0.121 | – | 0.0631 | –
partner 0.28 µg/mL | – | 0.0757 | – | 0.0789 | – | 0.0946

fitness, S. pneumoniae D39V, one replicate
Conditions | first compound 0.015 µg/mL | first compound 0.03 µg/mL | first compound 0.06 µg/mL
partner 0.007812 µg/mL | 0.728 | 0.578 | 0.283
partner 0.01562 µg/mL | 0.746 | 0.637 | 0.371
partner 0.03125 µg/mL | 0.635 | 0.557 | 0.175
